Experimental data reported in ChEMBL document CHEMBL5365518, “Synthesis and Validation of the First Cell-Impermeable Hsp90α-Selective Inhibitors” (ACS Med Chem Lett, 2023).
pIC50: −log10 of the molar value. Activity calls are given as the source filed them. No cut-off for these calls is given here.

Key:
[1] = target: Heat shock protein HSP 90-alpha (Homo sapiens, UniProt P07900); assay: Binding affinity HSP90alpha (unknown origin) incubated for 24 hrs by fluorescence polarization assay
[2] = Selectivity index, ratio of IC50 for binding affinity to HSP90beta (unknown origin) to IC50 for binding affinity to HSP90alpha (unknown origin)
[3] = target: Heat shock protein HSP 90-beta (Homo sapiens, UniProt P08238); assay: Binding affinity HSP90beta (unknown origin) incubated for 24 hrs by fluorescence polarization assay
Heat shock protein HSP 90-beta, sequence (P08238 whole entry): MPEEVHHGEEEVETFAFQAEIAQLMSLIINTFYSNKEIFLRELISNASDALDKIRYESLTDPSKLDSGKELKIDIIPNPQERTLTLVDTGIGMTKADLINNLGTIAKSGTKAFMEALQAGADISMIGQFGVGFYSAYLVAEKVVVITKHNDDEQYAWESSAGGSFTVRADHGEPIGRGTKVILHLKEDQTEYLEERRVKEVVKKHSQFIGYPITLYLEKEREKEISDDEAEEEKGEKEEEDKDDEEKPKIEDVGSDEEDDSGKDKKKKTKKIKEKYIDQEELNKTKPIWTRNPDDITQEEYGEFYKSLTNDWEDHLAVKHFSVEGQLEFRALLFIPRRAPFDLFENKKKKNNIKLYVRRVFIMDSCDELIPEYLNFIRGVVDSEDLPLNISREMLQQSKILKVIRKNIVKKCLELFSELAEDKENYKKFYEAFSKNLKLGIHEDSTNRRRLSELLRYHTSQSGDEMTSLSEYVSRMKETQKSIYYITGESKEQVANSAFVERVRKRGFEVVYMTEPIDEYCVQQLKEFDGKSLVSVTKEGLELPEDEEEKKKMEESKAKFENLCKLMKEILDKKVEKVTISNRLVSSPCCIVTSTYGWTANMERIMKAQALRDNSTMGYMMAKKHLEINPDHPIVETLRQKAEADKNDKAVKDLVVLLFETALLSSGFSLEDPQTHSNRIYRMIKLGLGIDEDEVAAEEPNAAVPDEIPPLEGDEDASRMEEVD

Endoplasmin = Endoplasmin (Homo sapiens, UniProt P14625); assay: Binding affinity to Grp94 (unknown origin) incubated for 24 hrs by fluorescence polarization assay
Endoplasmin, sequence (P14625 whole entry): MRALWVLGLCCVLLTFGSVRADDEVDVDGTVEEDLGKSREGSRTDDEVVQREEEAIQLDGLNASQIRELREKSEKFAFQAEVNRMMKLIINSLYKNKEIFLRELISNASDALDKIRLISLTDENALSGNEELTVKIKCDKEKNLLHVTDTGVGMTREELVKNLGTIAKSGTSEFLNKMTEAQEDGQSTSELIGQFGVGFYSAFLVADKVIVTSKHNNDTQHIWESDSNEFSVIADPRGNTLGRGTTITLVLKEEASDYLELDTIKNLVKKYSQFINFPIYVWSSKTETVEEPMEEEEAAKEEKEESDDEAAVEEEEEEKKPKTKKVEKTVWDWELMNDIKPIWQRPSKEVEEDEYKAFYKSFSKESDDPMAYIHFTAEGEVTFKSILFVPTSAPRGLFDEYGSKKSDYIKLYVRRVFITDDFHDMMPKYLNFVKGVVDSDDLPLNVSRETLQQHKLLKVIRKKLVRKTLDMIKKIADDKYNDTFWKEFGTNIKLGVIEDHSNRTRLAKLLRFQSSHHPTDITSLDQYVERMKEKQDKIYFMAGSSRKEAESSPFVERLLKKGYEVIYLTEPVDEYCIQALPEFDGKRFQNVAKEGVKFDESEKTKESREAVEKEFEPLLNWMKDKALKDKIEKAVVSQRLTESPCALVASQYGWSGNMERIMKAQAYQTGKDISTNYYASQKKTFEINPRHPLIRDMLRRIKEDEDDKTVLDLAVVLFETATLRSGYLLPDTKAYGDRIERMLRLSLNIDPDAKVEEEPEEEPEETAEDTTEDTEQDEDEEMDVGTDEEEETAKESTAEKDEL

[4] = target: RAC-alpha serine/threonine-protein kinase (Homo sapiens) (UniProt P31749); assay: Induction of AKT degradation in human OVCAR-8 cells incubated for 24 hrs by Western blot analysis; type: cell-based; conditions: dose 1-100 µM
RAC-alpha serine/threonine-protein kinase (Homo sapiens), sequence (P31749 whole entry): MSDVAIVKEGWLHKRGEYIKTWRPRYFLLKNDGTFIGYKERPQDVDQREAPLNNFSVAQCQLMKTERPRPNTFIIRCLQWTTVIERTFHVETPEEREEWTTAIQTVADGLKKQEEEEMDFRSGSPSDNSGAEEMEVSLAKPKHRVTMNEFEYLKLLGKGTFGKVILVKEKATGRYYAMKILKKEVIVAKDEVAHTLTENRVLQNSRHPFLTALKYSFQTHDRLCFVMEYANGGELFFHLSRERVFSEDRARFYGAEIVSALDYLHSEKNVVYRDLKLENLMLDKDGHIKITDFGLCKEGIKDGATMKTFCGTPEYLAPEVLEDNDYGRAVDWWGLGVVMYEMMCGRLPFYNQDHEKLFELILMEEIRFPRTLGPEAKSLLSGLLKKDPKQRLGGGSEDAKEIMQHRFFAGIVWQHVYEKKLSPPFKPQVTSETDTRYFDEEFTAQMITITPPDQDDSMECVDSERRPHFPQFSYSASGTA

OVCAR-8 [5] = assay: Antiproliferative activity against human OVCAR-8 cells assessed as inhibition of cell growth incubated for 72 hrs by MTS assay; type: functional, cell-based; conditions: OVCAR-8, 72 h
OVCAR-8 [6] = assay: Induction of heat shock response in human OVCAR-8 cells assessed as increase in HSP90 level at 1 to 100 uM incubated for 24 hrs by Western blot analysis; type: functional, cell-based; conditions: dose 1-100 µM
[7] = target: T1, Heat shock protein 75 kDa, mitochondrial (Homo sapiens, UniProt Q12931); assay: Binding affinity to Trap1 (unknown origin) incubated for 24 hrs by fluorescence polarization assay
T1 sequence (Q12931 whole entry): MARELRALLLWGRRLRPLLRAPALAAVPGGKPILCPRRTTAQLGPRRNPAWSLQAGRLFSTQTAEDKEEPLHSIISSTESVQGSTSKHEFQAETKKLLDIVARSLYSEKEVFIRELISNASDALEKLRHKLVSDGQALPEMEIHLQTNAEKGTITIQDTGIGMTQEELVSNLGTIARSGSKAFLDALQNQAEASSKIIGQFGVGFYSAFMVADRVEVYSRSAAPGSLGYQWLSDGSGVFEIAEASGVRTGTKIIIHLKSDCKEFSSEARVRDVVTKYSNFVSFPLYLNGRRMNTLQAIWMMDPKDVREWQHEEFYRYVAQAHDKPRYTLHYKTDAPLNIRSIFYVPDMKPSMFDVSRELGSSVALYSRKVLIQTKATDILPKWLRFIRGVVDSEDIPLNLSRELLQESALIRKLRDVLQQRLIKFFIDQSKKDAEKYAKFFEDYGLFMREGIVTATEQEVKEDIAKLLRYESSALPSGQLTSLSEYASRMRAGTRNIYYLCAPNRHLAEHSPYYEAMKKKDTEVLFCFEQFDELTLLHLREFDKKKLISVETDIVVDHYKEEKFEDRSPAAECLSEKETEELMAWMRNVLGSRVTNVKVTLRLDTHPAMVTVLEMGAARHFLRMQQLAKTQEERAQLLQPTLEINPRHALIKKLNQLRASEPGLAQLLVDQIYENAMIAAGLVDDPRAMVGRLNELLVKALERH

[8] = Effective permeability of compound in PBS buffer at pH 7.4 incubated for 5 hrs by PAMPA assay; type: ADME; conditions: read-out: Peff
[9] = Antiproliferative activity against human MCF-10A cells assessed as inhibition of cell growth incubated for 72 hrs by MTS assay; type: toxicity, cell-based
OVCAR-8 [10] = assay: Induction of heat shock response in human OVCAR-8 cells assessed as increase in HSP90 level at 100 nM incubated for 24 hrs by Western blot analysis; type: functional, cell-based
OVCAR-8 [11] = assay: Effect on HER2 level in human OVCAR-8 cells at 1 to 100 uM incubated for 24 hrs by Western blot analysis; type: functional, cell-based; conditions: dose 1-100 µM
[12] = target: RAC-alpha serine/threonine-protein kinase (Homo sapiens) (UniProt P31749); assay: Induction of AKT degradation in human OVCAR-8 cells at 1 to 100 uM incubated for 24 hrs by Western blot analysis; type: cell-based; conditions: dose 1-100 µM
[13] = target: RAC-alpha serine/threonine-protein kinase (Homo sapiens) (UniProt P31749); assay: Inhibition of AKT phosphorylation in human OVCAR-8 cells assessed as reduction in pAKT level incubated for 24 hrs by Western blot analysis; type: cell-based; conditions: dose 1-100 µM
OVCAR-8 [14] = assay: Effect on TGFbetaR level in human OVCAR-8 cells at 1 to 100 uM incubated for 24 hrs by Western blot analysis; type: functional, cell-based; conditions: dose 1-100 µM
OVCAR-8 [15] = assay: Effect on TLR2 level in human OVCAR-8 cells at 1 to 100 uM incubated for 24 hrs by Western blot analysis; type: functional, cell-based; conditions: dose 1-100 µM
Heat shock protein HSP90 = Heat shock protein HSP90 (Homo sapiens, UniProt P07900+P08238); assay: Disruption of HSP90-mediated hERG channel maturation transfected in HEK293 cells assessed as appearance of fully glycosylated form at 100 uM incubated for 24 hrs by Western blot analysis; type: toxicity, cell-based; conditions: hek293, 24 h

| SMILES | pIC50 [1] | Ratio IC50 [2] | pIC50 [3] | Papp at 5 h [8] [×10⁻⁶ cm/s] | further results |
| --- | --- | --- | --- | --- | --- |
| Cc1ccc(Sc2cc(C(=O)N3Cc4ccc(OCCCN(C)C)cc4C3)ccc2O)cc1C | 6.29 | – | < 4.00 | 2.99 | pIC50 (Endoplasmin): < 4.00; Activity [4]: Dose-Dependent Effect; pIC50 (OVCAR-8 [5]): 4.90; Activity (OVCAR-8 [6]): Active; pIC50 [7]: < 4.00; IC50 at 72 h [9]: 11.7 µM |
| CCNC(=O)c1noc(-c2cc(C(C)C)c(O)cc2O)c1-c1ccc(CN2CCOCC2)cc1 | – | – | – | – | Activity (OVCAR-8 [10]): Active |
| Cc1ccc(Sc2cc(C(=O)N3Cc4ccc(OCCN(C)C)cc4C3)ccc2O)cc1C | 6.07 | – | 4.02 | – | pIC50 (Endoplasmin): < 4.00; pIC50 (OVCAR-8 [5]): 4.87; pIC50 [7]: < 4.00; IC50 at 72 h [9]: 11.5 µM |
| Cc1ccc(Sc2cc(C(=O)N3Cc4ccc(OCC[N+](C)(C)C)cc4C3)ccc2O)cc1C.O=C([O-])C(F)(F)F | 6.19 | – | < 4.00 | 0.775 | pIC50 (Endoplasmin): < 4.00; pIC50 (OVCAR-8 [5]): < 4.00; pIC50 [7]: < 4.00; IC50 at 72 h [9]: > 100 µM |
| Cc1ccc(Sc2cc(C(=O)N3Cc4ccc(OCCC[N+](C)(C)C)cc4C3)ccc2O)cc1C.O=C([O-])C(F)(F)F | 6.47 | – | < 4.00 | 0.644 | pIC50 (Endoplasmin): < 4.00; Activity (OVCAR-8 [11]): Active; pIC50 (OVCAR-8 [5]): < 4.00; Activity [12]: inactive; Activity (OVCAR-8 [6]): inactive; inhibition [13]: Dose-Dependent Effect; pIC50 [7]: < 4.00; Activity (OVCAR-8 [14]): Active; Activity (OVCAR-8 [15]): Active; Activity (Heat shock protein HSP90): Active; IC50 at 72 h [9]: > 100 µM |
| CC[N+](C)(C)CCCOc1ccc2c(c1)CN(C(=O)c1ccc(O)c(Sc3ccc(C)c(C)c3)c1)C2.O=C([O-])C(F)(F)F | < 4.00 | – | < 4.00 | 1.05 | – |
| Cn1c(=O)c2c(ncn2C)n(C)c1=O [CAFFEINE] | – | – | – | 17.3 | – |
| Cc1ccc(Sc2cc(C(=O)N3Cc4ccc(OCCC[N+](C)(C)Cc5ccccc5)cc4C3)ccc2O)cc1C.O=C([O-])C(F)(F)F | 6.02 | > 104 | < 4.00 | 3.74 | – |

Further lines, with some results ahead:

| pIC50 [1] | Ratio IC50 [2] | pIC50 [3] | SMILES | Papp at 5 h [8] [×10⁻⁶ cm/s] | further results |
| --- | --- | --- | --- | --- | --- |
| 6.44 | > 12 | 5.08 | CC[N+](C)(C)CCOc1ccc2c(c1)CN(C(=O)c1ccc(O)c(Sc3ccc(C)c(C)c3)c1)C2 | – | – |
| 4.37 | > 2 | < 4.00 | Cc1ccc(Sc2cc(C(=O)N3Cc4ccc(OCCC[N+](C)(C)[O-])cc4C3)ccc2O)cc1C | – | – |
| 5.13 | > 13 | < 4.00 | Cc1ccc(Sc2cc(C(=O)N3Cc4ccc(OCCCC[N+](C)(C)C)cc4C3)ccc2O)cc1C | – | – |
| 4.04 | – | < 4.00 | Cc1ccc(Sc2cc(C(=O)N3Cc4ccc(OCCCC[N+](C)(C)[O-])cc4C3)ccc2O)cc1C | – | – |
| 6.10 | > 126 | < 4.00 | Cc1ccc(Sc2cc(C(=O)N3Cc4ccc(OCCCCN(C)C)cc4C3)ccc2O)cc1C | – | – |
| < 4.00 | – | < 4.00 | Cc1ccc(Sc2cc(C(=O)N3Cc4ccc(OCC[N+](C)(C)[O-])cc4C3)ccc2O)cc1C | – | – |
| 6.02 | > 104 | < 4.00 | Cc1ccc(Sc2cc(C(=O)N3Cc4ccc(OCC[N+](C)(C)Cc5ccccc5)cc4C3)ccc2O)cc1C | – | – |
| 5.10 | > 12 | < 4.00 | CC[N+](C)(C)CCCCOc1ccc2c(c1)CN(C(=O)c1ccc(O)c(Sc3ccc(C)c(C)c3)c1)C2 | – | – |
